The source made the active and inactive calls.
Assays:
[1] = Luminescence Cell-Based Dose Confirmation HTS to Identify Activators of 5'UTR Stem-Loop Driven Alpha-Synuclein mRNA Translation in H4 Neuroglioblastoma Cells. [Related pubchem assays: 1829 (Project Summary), 1814 (Primary HTS)]; format: functional
[2] = Luminescence Cell-Based Dose Response HTS to Identify Activators of Luciferase Translation or Activity in H4 […] Cells. [Related pubchem assays: 1829 (Project Summary), 1814 (Primary HTS)]; format: functional
[3] = test system: H4; test: Luminescence Cell-Based Dose Response HTS to Identify Activators of 5'UTR Stem-Loop Driven Prion Protein mRNA Translation in H4 Neuroglioblastoma Cells. [Related pubchem assays: 1829 (Project Summary), 1814 (Primary HTS)]; format: functional; settings: Homo sapiens
[4] = target: T1, Cytochrome P450 1A2 (Homo sapiens, UniProt P05177);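 note: PubChem cytochrome P450 panel assay, CYP1A2 panel member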
T1 sequence (P05177 whole entry): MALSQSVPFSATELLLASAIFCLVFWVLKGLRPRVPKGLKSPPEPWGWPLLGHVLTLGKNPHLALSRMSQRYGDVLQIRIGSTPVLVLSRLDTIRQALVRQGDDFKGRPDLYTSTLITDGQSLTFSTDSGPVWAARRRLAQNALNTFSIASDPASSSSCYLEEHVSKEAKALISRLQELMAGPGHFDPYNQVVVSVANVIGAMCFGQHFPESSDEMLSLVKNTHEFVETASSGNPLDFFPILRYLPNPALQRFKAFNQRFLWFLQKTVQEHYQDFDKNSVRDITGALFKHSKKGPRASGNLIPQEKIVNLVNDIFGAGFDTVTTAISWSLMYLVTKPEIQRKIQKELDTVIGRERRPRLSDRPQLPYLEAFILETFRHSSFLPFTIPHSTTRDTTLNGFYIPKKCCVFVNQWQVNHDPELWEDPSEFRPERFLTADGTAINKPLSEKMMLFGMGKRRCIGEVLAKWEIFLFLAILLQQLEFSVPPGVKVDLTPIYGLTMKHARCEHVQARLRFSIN

[5] = target: Cytochrome P450 2C9 (Homo sapiens, UniProt P11712)
[6] = target: Cytochrome P450 2D6 (Homo sapiens, UniProt P10635);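 note: CYP2D6 member of a cytochrome P450 panel assay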
[7] = target: T2, Rac GTPase-activating protein 1 (Homo sapiens, UniProt Q9H0H5); test: blockers of MgcRacGAP-driven Rac1 GTP hydrolysis – biochemical, ADP Hunter fluorescence, primary and confirmatory, confirmation (AID 624330); format: functional
T2 sequence (Q9H0H5 whole entry): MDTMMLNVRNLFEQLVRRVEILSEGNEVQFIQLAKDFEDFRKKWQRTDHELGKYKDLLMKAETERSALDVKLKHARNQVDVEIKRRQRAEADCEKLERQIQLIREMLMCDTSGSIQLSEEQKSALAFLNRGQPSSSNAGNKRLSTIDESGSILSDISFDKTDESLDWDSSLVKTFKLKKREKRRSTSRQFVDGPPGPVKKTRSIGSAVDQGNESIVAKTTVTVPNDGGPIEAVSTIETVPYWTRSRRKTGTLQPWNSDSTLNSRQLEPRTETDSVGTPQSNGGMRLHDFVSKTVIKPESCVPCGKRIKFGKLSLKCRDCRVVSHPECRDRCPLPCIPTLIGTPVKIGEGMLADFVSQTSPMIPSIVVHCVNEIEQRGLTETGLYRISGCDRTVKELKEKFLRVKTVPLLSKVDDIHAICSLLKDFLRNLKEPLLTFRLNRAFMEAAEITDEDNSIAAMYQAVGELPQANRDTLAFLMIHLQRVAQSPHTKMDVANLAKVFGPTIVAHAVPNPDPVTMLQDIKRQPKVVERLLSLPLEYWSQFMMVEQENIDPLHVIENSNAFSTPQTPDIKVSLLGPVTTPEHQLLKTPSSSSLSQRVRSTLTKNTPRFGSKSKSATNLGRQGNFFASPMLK

[8] = Trypanosoma cruzi growth suppression in host cells – NIH3T3 host cells, beta-gal luminescence, confirmation (AID 2044); format: functional, cell-based;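 note: intracellular parasites grown in NIH/3T3 mouse fibroblasts as host cells; luminescent beta-galactosidase reporter signal from transgenic T. cruzi replicating inside host cells; inhibitors lower the luminescence signal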
[9] = NIH3T3 cell viability loss – ATP luminescence, mouse fibroblasts, counter-screen, dose response (AID 2010); format: functional, cell-based;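 note: cells exposed to compound for about 90 hours before reading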
[10] = target: T3, Heat shock factor protein 1 (Mus musculus, UniProt P38532); test: decrease of HSF1-responsive luciferase luminescence – cell-based, NIH3T3, dose retest, confirmation (AID 2382); format: functional;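 note: NIH3T3 fibroblasts with HSF1-driven luciferase reporter stressed by proteasome inhibitor MG132; luminescence from HSF1-driven luciferase expression after 8 hours of MG132 stress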
T3 sequence (P38532 whole entry): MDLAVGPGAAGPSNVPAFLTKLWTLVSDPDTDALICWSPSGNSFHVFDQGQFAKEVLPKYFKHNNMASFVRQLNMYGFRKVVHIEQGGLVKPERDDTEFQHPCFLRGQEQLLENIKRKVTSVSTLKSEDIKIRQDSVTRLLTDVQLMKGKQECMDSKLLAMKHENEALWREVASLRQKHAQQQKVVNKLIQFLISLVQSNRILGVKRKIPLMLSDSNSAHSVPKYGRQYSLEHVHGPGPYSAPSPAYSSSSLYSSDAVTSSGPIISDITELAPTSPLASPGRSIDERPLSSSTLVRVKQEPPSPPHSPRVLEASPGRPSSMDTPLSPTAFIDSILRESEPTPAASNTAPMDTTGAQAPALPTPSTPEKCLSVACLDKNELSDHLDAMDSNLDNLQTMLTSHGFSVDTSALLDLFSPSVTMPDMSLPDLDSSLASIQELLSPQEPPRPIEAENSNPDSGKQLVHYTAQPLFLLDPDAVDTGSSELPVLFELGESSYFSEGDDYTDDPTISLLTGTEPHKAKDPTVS

Sequence of Cytochrome P450 2C9 (P11712 whole entry): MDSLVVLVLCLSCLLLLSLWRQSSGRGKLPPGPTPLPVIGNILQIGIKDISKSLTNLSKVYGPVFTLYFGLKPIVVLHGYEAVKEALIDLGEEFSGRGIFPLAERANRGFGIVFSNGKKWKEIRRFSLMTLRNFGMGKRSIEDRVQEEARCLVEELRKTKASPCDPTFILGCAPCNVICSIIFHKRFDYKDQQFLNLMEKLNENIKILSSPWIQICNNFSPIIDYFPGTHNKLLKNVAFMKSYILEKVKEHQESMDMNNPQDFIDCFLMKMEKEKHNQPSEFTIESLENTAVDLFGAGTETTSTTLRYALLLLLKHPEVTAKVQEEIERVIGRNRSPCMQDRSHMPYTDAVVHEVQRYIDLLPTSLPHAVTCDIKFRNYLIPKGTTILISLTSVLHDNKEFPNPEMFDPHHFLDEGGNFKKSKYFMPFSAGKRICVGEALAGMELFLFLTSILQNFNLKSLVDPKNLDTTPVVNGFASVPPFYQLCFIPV
Sequence of Cytochrome P450 2D6 (P10635 whole entry): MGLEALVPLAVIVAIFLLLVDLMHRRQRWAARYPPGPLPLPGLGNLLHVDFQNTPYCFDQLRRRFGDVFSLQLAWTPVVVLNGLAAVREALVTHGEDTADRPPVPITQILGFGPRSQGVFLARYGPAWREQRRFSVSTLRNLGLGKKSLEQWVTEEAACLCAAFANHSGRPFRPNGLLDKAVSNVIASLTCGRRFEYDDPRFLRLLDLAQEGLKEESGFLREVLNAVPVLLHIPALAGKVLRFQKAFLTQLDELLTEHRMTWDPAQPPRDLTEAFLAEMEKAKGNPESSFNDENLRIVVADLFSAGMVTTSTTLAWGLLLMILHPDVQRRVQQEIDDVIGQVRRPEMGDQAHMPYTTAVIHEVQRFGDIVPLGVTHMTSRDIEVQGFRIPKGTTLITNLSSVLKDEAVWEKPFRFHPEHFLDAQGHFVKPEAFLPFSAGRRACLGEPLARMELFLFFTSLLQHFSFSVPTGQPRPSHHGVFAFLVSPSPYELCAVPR

Structure (SMILES): c1ccc(CN2CCN(c3cnc4ccccc4n3)CC2)cc1
- EC50 [1]: 4.79 µM (active)
- EC50 [2]: 26.8 µM (active)
- EC50 [3]: 10.9 µM (active)

Structure (SMILES): COc1ccccc1Cn1nnc2c(=O)[nH]c(C3CCN(C(=O)c4ccc(C)cc4)CC3)nc21
- AC50 [4]: 25.1 µM (inconclusive)

Structure (SMILES): COc1ccc(-c2ccc(-c3nnn(CC(=O)N4CCOCC4)n3)cc2)cc1
- EC50 [1]: 4.15 µM (active)
- EC50 [2]: 4.67 µM (active)
- EC50 [3]: 2.65 µM (active)

Structure (SMILES): Cc1cc(C)cc(-n2c(C)cc(C=C(C#N)C#N)c2C)c1
- AC50 [5]: 2.51 µM (inconclusive)

Structure (SMILES): Cn1cccc1C(=O)N1CCC2(CC1)CCN(c1ccncc1)CC2
- AC50 [6]: 25.1 µM (inconclusive)
- AC50 [4]: 15.8 µM (inconclusive)

Structure (SMILES): CC(C)Oc1ccc(OCCn2c(S)nc3c(N)ncnc32)cc1
- IC50 [7]: 95.3 µM (active)

Structure (SMILES): c1ccc2c(Nc3ccncc3)nc(-c3ccoc3)nc2c1
- AC50 [6]: 15.8 µM (inconclusive)

Structure (SMILES): C[C@@H](C(=O)Nc1ccc2ccccc2c1)[C@@H]1C[C@@]1(C)[C@@H](NS(=O)(=O)c1ccc(-c2ccccc2)cc1)c1ccccc1
- AC50 [4]: 12.6 µM (inconclusive)

Structure (SMILES): Cc1cccn2c(NCc3ccc4c(c3)OCO4)c(-c3ccc(O)cc3)nc12
- IC50 [7]: 68.7 µM (active)

Structure (SMILES): COc1ccc(Cc2nnc(NC(=O)c3ccco3)s2)cc1
- AC50 [4]: 11.2 µM (inconclusive)

Structure (SMILES): Cc1ccc2c(CC(=O)OCc3cc(=O)n4c(n3)sc3ccccc34)coc2c1
- AC50 [6]: 31.6 µM (inconclusive)

Structure (SMILES): O=C(CN1CCN(C2CCCCC2)CC1)NCCC1=CCCCC1
- AC50 [4]: 20 µM (inconclusive)

Structure (SMILES): Cc1ccccc1-c1cncnc1NCCN1CCOCC1
- AC50 [6]: 39.8 µM (inconclusive)
- AC50 [4]: 15.8 µM (inconclusive)

Structure (SMILES): COC(=O)C1=C(N)N(c2ccccc2C(F)(F)F)C2=C(C(=O)CCC2)C1c1ccc2c(c1)OCO2 (centres undefined)
- EC50 [8]: 1.24 µM (active)
- EC50 [9]: > 60 µM (not active)
- AC50 [4]: 31.6 µM (inconclusive)

Structure (SMILES): COc1cc(CNCc2cc(OC)c(OC)c(OC)c2)cc(OC)c1
- IC50 [7]: 203 µM (active)

Structure (SMILES): O=C(c1ccc(Cl)cc1)N1CCCC(c2ccccc2)=N1
- AC50 [4]: 0.141 µM (inconclusive)

Structure (SMILES): O=C(CSc1nc2ccccc2s1)NNC(=S)Nc1ccc(Br)cc1
- AC50 [6]: 3.55 µM (inconclusive)

Structure (SMILES): O=C(ON=C1CCN(S(=O)(=O)c2ccccc2)CC1)c1ccccc1
- AC50 [5]: 31.6 µM (inconclusive)

Structure (SMILES): Cc1cc(C)c(-c2nc3ccccc3s2)[nH]1
- EC50 [1]: 0.207 µM (active)
- EC50 [2]: 1.61 µM (active)
- EC50 [3]: 30.3 µM (active)

Structure (SMILES): COC(=O)CSc1nnc(CNc2ccc(Cl)cc2)n1-c1ccccc1
- AC50 [5]: 22.4 µM (inconclusive)

Structure (SMILES): CC(C(=O)NCC(=O)Nc1ccc(F)c(F)c1F)N1CCN(c2ccc(O)cc2)CC1 (centres undefined)
- IC50 [7]: 42.5 µM (active)

Structure (SMILES): Nc1nc(N)c(CCCCc2ccccc2)c(N)n1
- AC50 [6]: 3.98 µM (inconclusive)

Structure (SMILES): COc1cc(-c2nc3cnccn3c2Nc2c(C)cccc2C)ccc1O
- IC50 [7]: 46.4 µM (active)

Structure (SMILES): Cc1cc(OCc2nc3ccccc3s2)ccc1N
- IC50 [7]: 60.7 µM (active)

Structure (SMILES): O=C(COc1ccc(Cl)cc1Cl)NC(=O)N1CCCCC1
- EC50 [1]: 6.03 µM (active)
- EC50 [2]: 30.6 µM (active)
- EC50 [3]: 92.5 µM (active)

Structure (SMILES): COC(=O)[C@@]1(Cc2ccc(OC)cc2)[C@H]2c3cc(C(=O)N4CCCC4)n(CCc4c[nH]c5cc(F)ccc45)c3C[C@H]2CN1C(=O)c1ccccc1
- AC50 [4]: 39.8 µM (inconclusive)

Structure (SMILES): CCCS(=O)(=O)c1nc(S(=O)(=O)c2ccc(C)cc2)c(N2CCN(CCO)CC2)s1
- EC50 [1]: 18.7 µM (active)
- EC50 [2]: 8.79 µM (active)
- EC50 [3]: > 120 µM (not active)

Structure (SMILES): O=C(Nc1ccn(Cc2ccccc2)n1)c1ccc2c(c1)OCO2
- EC50 [1]: 15.6 µM (active)
- EC50 [2]: 18.5 µM (active)
- EC50 [3]: > 120 µM (not active)

Structure (SMILES): Cc1ccc(C(=O)Oc2cc(C)n(C)c(=O)c2)cc1
- AC50 [4]: 25.1 µM (inconclusive)
- AC50 [5]: 11.2 µM (inconclusive)

Structure (SMILES): CC(NC(=O)c1ccccc1)c1nc2ccccc2n1Cc1ccccc1F (centres undefined)
- AC50 [4]: 28.2 µM (inconclusive)

Structure (SMILES): CN(CCCCCCN(C)Cc1ccccc1O)Cc1ccccc1O
- IC50 [7]: 73.6 µM (active)

Structure (SMILES): CCOc1ccc(N/C(=C(/C(=O)C(=O)N2CCOCC2)C(=O)c2ccccc2)c2ccccc2)cc1
- EC50 [1]: 13.3 µM (active)
- EC50 [2]: 20.3 µM (active)
- EC50 [3]: 57.8 µM (active)

Structure (SMILES): O=S(=O)(NC(=NC(=S)Nc1ccccc1)c1ccccc1)c1ccc(Cl)cc1
- EC50 [1]: 41.4 µM (active)
- EC50 [2]: 59.7 µM (active)
- EC50 [3]: 63.2 µM (active)

Structure (SMILES): COC(=O)[C@@]1(Cc2ccccc2)[C@H]2c3cc(C(=O)N4CCCC4)n(Cc4ccccn4)c3C[C@H]2CN1C(=O)c1ccccc1
- AC50 [6]: 39.8 µM (inconclusive)

Structure (SMILES): NC(=O)C1(N2CCCCC2)CCN(C2CC(=O)NC2=O)CC1 (centres undefined)
- EC50 [1]: > 120 µM (not active)
- EC50 [2]: > 120 µM (not active)
- EC50 [3]: > 120 µM (not active)

Structure (SMILES): Cc1ccccc1-c1cc(NCc2ccccc2)ncn1
- AC50 [6]: 31.6 µM (inconclusive)

Structure (SMILES): COc1ccc(-c2cn3c(C)c(C(=O)NCCN4CCOCC4)sc3n2)cc1
- AC50 [4]: 0.126 µM (inconclusive)

Structure (SMILES): CN(C)c1ccc(-c2cncnc2-n2ccnc2)cc1
- AC50 [6]: 39.8 µM (inconclusive)

Structure (SMILES): COc1ccccc1NC(=O)CN1CCN(CC(=O)Nc2ccc(OCc3ccccc3)cc2)CC1
- AC50 [6]: 20 µM (inconclusive)
- AC50 [4]: 10 µM (inconclusive)

Structure (SMILES): C/C(CC1CC(COCC(C)C)OC1=O)=N\Nc1nc(-c2ccccc2)cs1 (centres undefined)
- EC50 [1]: > 120 µM (not active)
- EC50 [2]: > 120 µM (not active)
- EC50 [3]: 71.2 µM (active)

Structure (SMILES): Cc1cccn2c(S)nnc12
- IC50 [7]: 17.2 µM (active)

Structure (SMILES): COc1ccc(C(=O)NC2CC3CCCC(C2)N3CC(C)C)cc1OC (centres undefined)
- AC50 [5]: 22.4 µM (inconclusive)

Structure (SMILES): O=C(NCc1ccccc1)/C(=C\c1ccc(O)cc1)NC(=O)c1ccco1
- IC50 [7]: 141 µM (active)

Structure (SMILES): Cn1cc(C(=O)c2cccc(Cl)c2Cl)cc1C(=O)O
- AC50 [5]: 31.6 µM (inconclusive)

Structure (SMILES): COc1cc(/C=N/NC(=O)c2[nH]nc3c2CCc2ccccc2-3)ccc1O
- IC50 [7]: 54.3 µM (active)

Structure (SMILES): COc1cccc(/C=N/NC(=O)c2c(-c3ccccc3)noc2C)c1
- AC50 [6]: 17.8 µM (inconclusive)

Structure (SMILES): CCc1cc(/C=N/C2CCCCC2)c(O)s1
- EC50 [1]: 67.7 µM (active)
- EC50 [2]: > 120 µM (not active)
- EC50 [3]: > 120 µM (not active)
- EC50 [10]: > 195 µM (not active)

Structure (SMILES): COc1cc(/C=N/NC(=O)C2CCN(CC(O)COCc3ccccc3)CC2)ccc1O (centres undefined)
- IC50 [7]: 31.5 µM (active)

Structure (SMILES): O=c1cc(-c2ccc(O)c(O)c2)oc2cc(O)c([C@@H]3O[C@H](CO)[C@@H](O)[C@H](O)[C@H]3O)c(O)c12 [ISOORIENTIN]
- IC50 [7]: 40.9 µM (active)

Structure (SMILES): COc1ccccc1N1CCN(CCN(C(=O)C2CCCCC2)c2ccccn2)CC1 [WAY-100,635]
- AC50 [6]: 31.6 µM (inconclusive)

Source: ChEMBL document CHEMBL1201862, “PubChem BioAssay data set” (2004)
